From patent US8440827B2, “Photolabile caged transition metal complexes and methods of using the same” (Duke University, priority 2008, dated 2013)
Where two headings read alike, the source gives them in different places. Blank lines part the entries; values can stand above or below the molecule they belong to.

Columns and labels:
[1] = constant of the model, taken from literature; cited from earlier work
[2] = Potentiometric and pH-dependent spectrophotometric titrations of CuL; assay type: physicochemical; details: for Log β (overall stability constant): pH-dependent spectrophotometric titration, 25° C., 0.1 M NaClO4, Specfit, refined
Description: Cu(II) perchlorate solutions (0.1 M) were prepared from solid Cu(ClO4)2.6H2O and standardized with 0.05 M EDTA to a murexide endpoint in ammonia buffer. NaOH, HClO4, and NaClO4 solutions (0.1 M) were prepared with boiled nanopure deionized water and were degassed upon cooling to remove dissolved carbonate. NaOH solutions were standardized by titration with both 0.2 M HCl and potassium hydrogen phthalate to a phenolphthalein end point and were stored under Ar; HClO4 stock solutions were prepared from concentrated perchloric acid and standardized by titration with standard NaOH to a phenolphthalein end point. All solutions were degassed with Ar for 45 minutes prior to each experimental run.
Titrations were carried out at 25° C. with 0.1 M NaClO4 supporting electrolyte in a 3-mL cuvette equipped with a pH probe, titrator tip, and stir bar, and blanketed in Ar to preserve an inert environment. The glass-bulb probe (Orion combination pH electrode model 8103BN filled with 3 M NaCl) was calibrated with pH 4 and 7 standard reference buffers (RICCA Chemical Company). CuL solutions were prepared by dissolving [Cu(OH2)(cage)] recrystallized from methanol in 0.1 M NaClO4 to obtain CuL concentrations in the range of 0.5 mM. Initial volumes were between 2 and 2.2 mL. A Schott TITRONIC® 110 plus autotitrator kept under constant Ar sparge was used to deliver 2 to 4 μL aliquots of acid or base through the titrator tip into the reaction cuvette. The solutions were stirred constantly and allowed to equilibrate at least 30 s after each addition before data were collected. All titrations were carried out from low to high and from high to low pH with similar results.
Titration data for the CuL complex show two ionizable protons below pH 5.

[3] = Potentiometric titration of the apo-ligand H2cage; assay type: physicochemical; details: pH range 2 to 12
[4] = Deoxyribose assay for hydroxyl radical production; details: for effect on OH• production by copper: relative to Cu2+ alone
Text: Hydroxyl radicals, which are generated in this assay by Fenton-like conditions of copper, ascorbic acid, and H2O2, degrade deoxyribose to give thiobarbituric acid (TBA)-reactive products with absorbance at 532 nm. Ligands added to the reaction mixture attenuate the amount of TBA-reactive species by altering the coordination environment around copper. […] The 2-deoxyribose assay was used to measure hydroxyl radical formation (Halliwell, B.; Gutteridge, […]. Anal. Biochem. 1987, 165, 215-219). A mixture of copper, ascorbic acid, and hydrogen peroxide generates hydroxyl radicals by Fenton-like chemistry. Hydroxyl radicals attack 2-deoxyribose to form malondialdehyde (MDA), which upon heating with TBA under acidic conditions produces a pink chromophore (λmax=532 nm). Chelators that prevent copper from reacting with ascorbic acid and hydrogen peroxide result in less chromophore formation. All assays were performed using 20 mM NaH2PO4 buffered to pH 7.4. The following reagents were added sequentially to obtain a 1 mL buffered solution with these final concentrations: chelator (10-20 μM), CuSO4 (10 μM), 2-deoxyribose (15 mM), H2O2 (100 μM), and ascorbic acid (2 mM). For photolyzed samples, 500 μM solutions of [Cu(OH2)(cage)] in 20 mM pH 7.4 NaH2PO4 buffer were photolyzed in screwtop quartz cuvettes for 4 min in the photoreactor, then immediately diluted into the deoxyribose reaction mixtures to obtain final concentrations of 10 μM in Cu. Stock solutions of CuSO4, ascorbic acid, and H2O2 were prepared fresh daily, other solutions were prepared weekly. […] The temperature was increased to 100° C. for 20 min, then cooled to room temperature and the absorbance at 532 nm was recorded. Values are reported as A/A0 where A0 is the absorbance without chelator present and A is the absorbance with chelator added. The value for CuSO4 alone is A/A0=1. Error bars represent standard deviations from measurements done in at least triplicate.

[5] = Solubility of H2cage in solvents; assay type: physicochemical
Text: A ligand H2cage is obtained in a one-pot, two-step synthesis starting from 3-amino-3-(2-nitrophenyl)propionic acid. […] In the presence of Cu2+, however, protons are released from H2cage at pH 3.3 and 4.8, consistent with deprotonation of both amides.

[6] = cited from earlier work
[7] = Competition study of nitrilotriacetic acid (NTA) vs. cage for Cu2+; assay type: binding; details: competition with NTA, 50 mM HEPES pH 7.4, 25° C., refined
Description: Solutions of CuL (where L=cage^2−) were prepared by dissolving [Cu(OH2)cage] that was recrystallized from methanol into 50 mM HEPES (N-(2-hydroxyethyl)-piperazine-N′-2-ethanesulfonic acid) buffer, pH 7.4, with initial concentrations ranging from 03-1.5 mM. The reaction vessel was a 3-mL cuvette and initial solution volumes were 1 mL. All titrations were carried out at 25° C. Aliquots (1-2 μL) of the competitive chelator NTA (100 mM) were pipetted into CuL solutions and monitored spectrophotometrically. After each addition, solutions were manually mixed and equilibrated for 5 min before data were collected. Reported errors in log β were calculated from the standard deviation of three runs.

[8] = Photolysis with 350 nm UV light, followed by UV-vis and LC-MS; assay type: physicochemical; details: pH 7.4 phosphate buffer
Text: The shift in the d-d band centered at 580 nm indicates a reorganization of the coordination sphere upon photolysis. The band for the intact Cu complex 2 disappears and is replaced by bands corresponding to the expected photoproducts 3 and 4, as confirmed by their mass spectra and by comparison to a picolinamide standard for 3. […] Reduction to Cu1+ is also possible as a result of photolysis, although it would likely reoxidize to Cu2+ under these experimental conditions.
All chemicals were purchased commercially and used without further purification. […] Elemental analysis was performed by Columbia Analytical Services, Inc. IR spectra were measured on a Nicolet 380 FT-IR. High-resolution, fast-atom bombardment (HR-FABMS) mass spectra were recorded on JEOL JMS-SX-102 instrument. […] A Varian Polaris C18 (150×1.0 mm) column was used and peaks were detected by UV absorption at 254 nm. […] UV-vis spectra were recorded on a Cary 50 UV-vis spectrophotometer. […]

Compound: O=C([O-])CN(CC(=O)[O-])CC(=O)O.[Cu+2] [Cu(NTA)]
Log β [1]: 12.7

pH at which protons are released from H2cage, higher value ([2]; in the presence of Cu2+): 4.8
pH at which protons are released from H2cage, lower value ([2]; in the presence of Cu2+): 3.3
dissociable (ionizable) protons [3]: no dissociable protons
dissociable (ionizable) protons ([3]; listed as apo-ligand): no ionizable protons
protection of deoxyribose degradation ([4]; compared to background reaction of Cu2+ alone, pH 7.4): 50%
solubility in methanol and ethanol [5]: very soluble
solubility in water [5]: moderately soluble
Compound: O=C(CC(NC(=O)c1ccccn1)c1ccccc1[N+](=O)[O-])NCc1ccccn1 (stereo not shown) [H2cage, Pyridine-2-carboxylic acid {1-(2-nitro-phenyl)-2-[(pyridine-2-ylmethyl)-carbamoyl]-ethyl}-amide]

Compound: O=C(O)CN(CC(=O)O)CC(=O)O [NTA, nitrilotriacetic acid, reference compound]
Kd ([6]; pH 7.4, read-out: KD for Cu2+): 0.023 nM
effect on OH• production by copper ([4]; pH 7.4): promotes OH• production

Compound: O=C(O)CN(CC(=O)O)CC(=O)O [NTAH3]
Log β [1]: 13.76

Compound: O=C(O)CN(CC(=O)O)CC(=O)O [NTAH4]
Log β [1]: 14.76

Kd ([2]; pH 7.4, converted from log β, read-out: conditional dissociation constant, KD): 0.016 nM
Log β (overall stability constant) [2]: 10.8
Log β (overall stability constant) ([2]; listed as CuL): 10.80 ± 0.01
Log β [7]: 10.79 ± 0.06
changes in UV-vis spectrum on exposure to UV light [8]: apparent within seconds
time of photolysis until cleavage of the ligand is complete ([8]; LC-MS): ≤ 4 min
Compound: O=C1CC(c2ccccc2[N+](=O)[O-])[N](C(=O)c2ccccn2)[Cu]([OH])[N]1Cc1ccccn1 (stereo not shown) [[Cu(OH2)(cage)]]
OH• production after uncaging by UV photolysis ([4]; photolyzed for 4 min, increase in A532): increases OH• production

Compound: NC(=O)c1ccccn1 [picolinamide]
log value for the 1:1 species ([6]; Cu2+ : ligand 1:1): 2.87
log value for the 1:2 species ([6]; Cu2+ : ligand 1:2): 5.40
effect on OH• production by copper ([4]; pH 7.4): improve the catalytic properties of the metal
